Test results: PubChem BioAssay AID2060882 (Molecular Pharmacology Branch, DTP, NCI, 2025)

System: 898857-211-R-J1-PDC complex spheroids, growth % test/control
Experiment: Anticancer human tumor 898857-211-R-J1-PDC patient-derived melanoma cell line growth inhibition [RAS]
Conditions: for IC50: curve of first compound; for viability, T/C: stronger effect = lower value
Outline: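 Multi-cell-type spheroids: tumor cells plus HUVEC endothelial cells and mesenchymal stem cells. RAS-pathway inhibitors were combined with targeted agents, each dosed in half-log steps down from clinical Cmax, or from 10 microM when Cmax was unknown.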

[1] = second compound 0.0316 µM, first compound 0.00316 µM
[2] = second compound 0.0316 µM, first compound 0.01 µM
[3] = second compound 0.0316 µM, first compound 0.0316 µM
[4] = second compound 0.0316 µM, first compound 0.1 µM
[5] = second compound 0.0316 µM, first compound 0.316 µM
[6] = second compound 0.0316 µM, first compound 1 µM
[7] = second compound 0.1 µM, first compound 0.00316 µM
[8] = second compound 0.1 µM, first compound 0.01 µM
[9] = second compound 0.1 µM, first compound 0.0316 µM
[10] = second compound 0.1 µM, first compound 0.1 µM
[11] = second compound 0.1 µM, first compound 0.316 µM
[12] = second compound 0.1 µM, first compound 1 µM
[13] = second compound 0.316 µM, first compound 0.00316 µM
[14] = second compound 0.316 µM, first compound 0.01 µM
[15] = second compound 0.316 µM, first compound 0.0316 µM
[16] = second compound 0.316 µM, first compound 0.1 µM
[17] = second compound 0.316 µM, first compound 0.316 µM
[18] = second compound 0.316 µM, first compound 1 µM
[19] = second compound 1 µM, first compound 0.00316 µM
[20] = second compound 1 µM, first compound 0.01 µM
[21] = second compound 1 µM, first compound 0.0316 µM
[22] = second compound 1 µM, first compound 0.1 µM
[23] = second compound 1 µM, first compound 0.316 µM
[24] = second compound 1 µM, first compound 1 µM
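Note: spheroids exposed to compound for seven days before readout.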
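Throughout, for viability, T/C: 100% = DMSO vehicle control wells.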

C=CC(=O)Nc1cc(Nc2nccc(-c3cn(C)c4ccccc34)n2)c(OC)cc1N(C)CCN(C)C + C=CC(=O)N1CCN(c2nc(OCC3CCCN3C)nc3c(F)c(-c4nc(N)cc(C)c4C(F)(F)F)c(Cl)cc23)C(C)C1
IC50 (second compound 0.00316 µM): 940 nM
IC50 (second compound 0.01 µM): > 1000 nM
IC50 (second compound 0.0316 µM): > 1000 nM
IC50 (second compound 0.1 µM): 962 nM
IC50 (second compound 0.316 µM): > 1000 nM
IC50 (second compound 1 µM): 870 nM
viability, T/C (second compound 0.00316 µM, first compound 0.00316 µM): 98.9%
viability, T/C (second compound 0.00316 µM, first compound 0.01 µM): 98.9%
viability, T/C (second compound 0.00316 µM, first compound 0.0316 µM): 116%
viability, T/C (second compound 0.00316 µM, first compound 0.1 µM): 101%
viability, T/C (second compound 0.00316 µM, first compound 0.316 µM): 92.6%
viability, T/C (second compound 0.00316 µM, first compound 1 µM): 47.5%
viability, T/C (second compound 0.01 µM, first compound 0.00316 µM): 102%
viability, T/C (second compound 0.01 µM, first compound 0.01 µM): 105%
viability, T/C (second compound 0.01 µM, first compound 0.0316 µM): 93%
viability, T/C (second compound 0.01 µM, first compound 0.1 µM): 100%
viability, T/C (second compound 0.01 µM, first compound 0.316 µM): 96.5%
viability, T/C (second compound 0.01 µM, first compound 1 µM): 54.4%
viability, T/C [1]: 104%
viability, T/C [2]: 103%
viability, T/C [3]: 104%
viability, T/C [4]: 107%
viability, T/C [5]: 93.6%
viability, T/C [6]: 58.4%
viability, T/C [7]: 105%
viability, T/C [8]: 105%
viability, T/C [9]: 117%
viability, T/C [10]: 106%
viability, T/C [11]: 98%
viability, T/C [12]: 48.2%
viability, T/C [13]: 114%
viability, T/C [14]: 112%
viability, T/C [15]: 116%
viability, T/C [16]: 108%
viability, T/C [17]: 93.8%
viability, T/C [18]: 53.7%
viability, T/C [19]: 118%
viability, T/C [20]: 120%
viability, T/C [21]: 124%
viability, T/C [22]: 114%
viability, T/C [23]: 97.7%
viability, T/C [24]: 43.4%

CC1(C)CCC(Nc2ncc(C(F)(F)F)c(-c3c[nH]c4c(P(C)(C)=O)c(C#N)ccc34)n2)CN1 (stereo unspecified) + C#Cc1c(F)ccc2cc(O)cc(-c3ncc4c(N5CC6CCC(C5)N6)nc(OCC56CCCN5CC(F)C6)nc4c3F)c12
IC50 (second compound 0.0316 µM): 4.05 nM
IC50 (second compound 0.1 µM): 5.69 nM
IC50 (second compound 0.316 µM): 5.3 nM
IC50 (second compound 1 µM): 5.82 nM
IC50 (second compound 3.16 µM): 5.41 nM
IC50 (second compound 10 µM): 2.06 nM
viability, T/C (second compound 0.0316 µM, first compound 0.000949 µM): 99.2%
viability, T/C (second compound 0.0316 µM, first compound 0.003 µM): 56.7%
viability, T/C (second compound 0.0316 µM, first compound 0.00949 µM): 30.9%
viability, T/C (second compound 0.0316 µM, first compound 0.03 µM): 22%
viability, T/C (second compound 0.0316 µM, first compound 0.0949 µM): 19.6%
viability, T/C (second compound 0.0316 µM, first compound 0.3 µM): 17.6%
viability, T/C (second compound 0.1 µM, first compound 0.000949 µM): 92.2%
viability, T/C (second compound 0.1 µM, first compound 0.003 µM): 66.7%
viability, T/C (second compound 0.1 µM, first compound 0.00949 µM): 35.4%
viability, T/C (second compound 0.1 µM, first compound 0.03 µM): 26.7%
viability, T/C (second compound 0.1 µM, first compound 0.0949 µM): 18.4%
viability, T/C (second compound 0.1 µM, first compound 0.3 µM): 17.5%
viability, T/C (second compound 0.316 µM, first compound 0.000949 µM): 91.3%
viability, T/C (second compound 0.316 µM, first compound 0.003 µM): 63.7%
viability, T/C (second compound 0.316 µM, first compound 0.00949 µM): 34.5%
viability, T/C (second compound 0.316 µM, first compound 0.03 µM): 28.1%
viability, T/C (second compound 0.316 µM, first compound 0.0949 µM): 20.4%
viability, T/C (second compound 0.316 µM, first compound 0.3 µM): 18.2%
viability, T/C (second compound 1 µM, first compound 0.000949 µM): 86.7%
viability, T/C (second compound 1 µM, first compound 0.003 µM): 66.1%
viability, T/C (second compound 1 µM, first compound 0.00949 µM): 37.7%
viability, T/C (second compound 1 µM, first compound 0.03 µM): 24.4%
viability, T/C (second compound 1 µM, first compound 0.0949 µM): 20.6%
viability, T/C (second compound 1 µM, first compound 0.3 µM): 17.1%
viability, T/C (second compound 3.16 µM, first compound 0.000949 µM): 87%
viability, T/C (second compound 3.16 µM, first compound 0.003 µM): 64.4%
viability, T/C (second compound 3.16 µM, first compound 0.00949 µM): 34.7%
viability, T/C (second compound 3.16 µM, first compound 0.03 µM): 28.9%
viability, T/C (second compound 3.16 µM, first compound 0.0949 µM): 19.7%
viability, T/C (second compound 3.16 µM, first compound 0.3 µM): 19.1%
viability, T/C (second compound 10 µM, first compound 0.000949 µM): 68.7%
viability, T/C (second compound 10 µM, first compound 0.003 µM): 40.4%
viability, T/C (second compound 10 µM, first compound 0.00949 µM): 25.2%
viability, T/C (second compound 10 µM, first compound 0.03 µM): 24.3%
viability, T/C (second compound 10 µM, first compound 0.0949 µM): 15.3%
viability, T/C (second compound 10 µM, first compound 0.3 µM): 13.2%

O=C(c1ccc(F)c(F)c1Nc1ccc(I)cc1F)N1CC(O)([C@@H]2CCCCN2)C1 + C#Cc1c(F)ccc2cc(O)cc(-c3ncc4c(N5CC6CCC(C5)N6)nc(OCC56CCCN5CC(F)C6)nc4c3F)c12
IC50 (second compound 0.0316 µM): 3.56 nM
IC50 (second compound 0.1 µM): < 3.16 nM
IC50 (second compound 0.316 µM): < 3.16 nM
IC50 (second compound 1 µM): 3.69 nM
IC50 (second compound 3.16 µM): 5.18 nM
IC50 (second compound 10 µM): < 3.16 nM
viability, T/C [1]: 52.6%
viability, T/C [2]: 35.3%
viability, T/C [3]: 26.1%
viability, T/C [4]: 26.5%
viability, T/C [5]: 17.6%
viability, T/C [6]: 14.2%
viability, T/C [7]: 44%
viability, T/C [8]: 36.1%
viability, T/C [9]: 27.1%
viability, T/C [10]: 20.7%
viability, T/C [11]: 18.8%
viability, T/C [12]: 15.3%
viability, T/C [13]: 50%
viability, T/C [14]: 37.8%
viability, T/C [15]: 29.6%
viability, T/C [16]: 24.8%
viability, T/C [17]: 16.7%
viability, T/C [18]: 14.5%
viability, T/C [19]: 53.5%
viability, T/C [20]: 30%
viability, T/C [21]: 24.5%
viability, T/C [22]: 20.6%
viability, T/C [23]: 17.6%
viability, T/C [24]: 15.3%
viability, T/C (second compound 3.16 µM, first compound 0.00316 µM): 59.7%
viability, T/C (second compound 3.16 µM, first compound 0.01 µM): 36.2%
viability, T/C (second compound 3.16 µM, first compound 0.0316 µM): 26.7%
viability, T/C (second compound 3.16 µM, first compound 0.1 µM): 21.4%
viability, T/C (second compound 3.16 µM, first compound 0.316 µM): 19.3%
viability, T/C (second compound 3.16 µM, first compound 1 µM): 12.5%
viability, T/C (second compound 10 µM, first compound 0.00316 µM): 17.5%
viability, T/C (second compound 10 µM, first compound 0.01 µM): 14.3%
viability, T/C (second compound 10 µM, first compound 0.0316 µM): 12.5%
viability, T/C (second compound 10 µM, first compound 0.1 µM): 9.58%
viability, T/C (second compound 10 µM, first compound 0.316 µM): 9.91%
viability, T/C (second compound 10 µM, first compound 1 µM): 5.99%
